According to ChEMBL document CHEMBL1201862, “PubChem BioAssay data set” (2004):
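Test compounds were applied to cells in 96-well plates for 48 hours at 5 doses. Abbreviation: GI50, concentration required for 50% inhibition of growth.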 The source made the active and inactive calls. Rule as the data show it: active = GI50 up to about 1.1 µM and inactive = higher.

Legend:
Assay in all cases: inhibition of tumour cell growth, NCI panel, 48 h
[1] = system: RXF 631
[2] = system: SW-620
[3] = system: RPMI-8226
[4] = system: RXF 393
[5] = system: HCC 2998
[6] = system: K562
[7] = system: SF-539
[8] = system: SNB-75
[9] = system: EKVX
[10] = system: UO-31
[11] = system: A498
[12] = system: DLD-1
[13] = system: LXFL 529
[14] = system: SK-MEL-28
[15] = system: M14
[16] = system: OVCAR-8
[17] = system: NCI-H522
[18] = system: SK-MEL-5
[19] = system: HOP-92
[20] = system: TK-10
[21] = system: LOX IMVI
[22] = system: HL-60
[23] = system: Malme-3M
[24] = system: MOLT-4
[25] = system: SK-OV-3
[26] = system: 786-0
[27] = system: UACC-257
[28] = system: M19-MEL
[29] = system: A549
[30] = system: CCRF-CEM
[31] = system: IGROV-1
[32] = system: NCI-H460
[33] = system: HOP-18
[34] = system: OVCAR-3
[35] = system: HCT-116
[36] = system: HT-29
[37] = system: SN12C
[38] = system: COLO 205
[39] = system: HCT-15
[40] = system: SK-MEL-2
[41] = system: SNB-19
[42] = system: HOP-62
[43] = system: OVCAR-4
[44] = system: SF-295
[45] = system: NCI-H226
[46] = system: DMS-273
[47] = system: UACC-62
[48] = system: U-251
[49] = system: KM12
[50] = system: KM-20L2
[51] = system: CAKI-1
[52] = system: OVCAR-5
[53] = system: ACHN
[54] = system: DMS-114
[55] = system: SNB-78
[56] = system: SF-268
[57] = system: NCI-H23

## O=C1[C@H]2ON(c3ccccc3)C(c3ccc([N+](=O)[O-])cc3)[C@H]2C(=O)N1c1ccc(Cc2ccc(N3C(=O)[C@@H]4ON(c5ccccc5)C(c5ccc([N+](=O)[O-])cc5)[C@@H]4C3=O)cc2)cc1 (some centres not stated)
[1]
  GI50: > 100 µM (inactive)
[2]
  GI50: > 100 µM (inactive)
[3]
  GI50: > 100 µM (inactive)
[4]
  GI50: > 100 µM (inactive)
[5]
  GI50: > 100 µM (inactive)
[6]
  GI50: > 100 µM (inactive)
[7]
  GI50: > 100 µM (inactive)
[8]
  GI50: > 100 µM (inactive)
[9]
  GI50: > 100 µM (inactive)
[10]
  GI50: > 100 µM (inactive)
[11]
  GI50: > 100 µM (inactive)
[12]
  GI50: > 100 µM (inactive)
[13]
  GI50: 74.6 µM (inactive)
[14]
  GI50: > 100 µM (inactive)
[15]
  GI50: 13.5 µM (inactive)
[16]
  GI50: > 100 µM (inactive)
[17]
  GI50: > 100 µM (inactive)
[18]
  GI50: 40.1 µM (inactive)
[19]
  GI50: 52.4 µM (inactive)
[20]
  GI50: > 100 µM (inactive)
[21]
  GI50: > 100 µM (inactive)
[22]
  GI50: > 100 µM (inactive)
[23]
  GI50: 58.6 µM (inactive)
[24]
  GI50: > 100 µM (inactive)
[25]
  GI50: > 100 µM (inactive)
[26]
  GI50: > 100 µM (inactive)
[27]
  GI50: 98.9 µM (inactive)
[28]
  GI50: > 100 µM (inactive)
[29]
  GI50: > 100 µM (inactive)
[30]
  GI50: > 100 µM (inactive)
[31]
  GI50: > 100 µM (inactive)
[32]
  GI50: > 100 µM (inactive)
[33]
  GI50: > 100 µM (inactive)
[34]
  GI50: > 100 µM (inactive)
[35]
  GI50: > 100 µM (inactive)
[36]
  GI50: > 100 µM (inactive)
[37]
  GI50: > 100 µM (inactive)
[38]
  GI50: 58.7 µM (inactive)
[39]
  GI50: > 100 µM
[40]
  GI50: > 100 µM (inactive)
[41]
  GI50: > 100 µM (inactive)
[42]
  GI50: > 100 µM (inactive)
[43]
  GI50: > 100 µM (inactive)
[44]
  GI50: > 100 µM (inactive)
[45]
  GI50: > 100 µM (inactive)
[46]
  GI50: > 100 µM (inactive)
[47]
  GI50: 67.3 µM (inactive)
[48]
  GI50: > 100 µM (inactive)
[49]
  GI50: > 100 µM (inactive)
[50]
  GI50: > 100 µM (inactive)
[51]
  GI50: 26.1 µM (inactive)
[52]
  GI50: > 100 µM (inactive)
[53]
  GI50: > 100 µM (inactive)
[54]
  GI50: > 100 µM (inactive)
[55]
  GI50: > 100 µM (inactive)
[56]
  GI50: > 100 µM (inactive)
[57]
  GI50: > 100 µM (inactive)
